A short description of one data set: Solubility in methanol. The data set is classed as physicochemical. The source says:
The octasilane-POSS, which was insoluble in methanol, was rendered soluble in methanol after the derivatization to Q-POSS.

The next data set relates to E. coli. In words: Minimum inhibitory concentration (MIC). The data set is classed as cell-based. As to conditions: overnight incubation 37° C., absorbance at 600 nm. On the procedure:
The minimum inhibitory concentration (MIC), of Q-POSS compounds and non-Q-POSS compounds were compared and the results are shown in Table 4. As used herein, MIC refers to the lowest concentration of an antimicrobial agent that will inhibit the visible growth of a microorganism after overnight incubation. The procedure was carried out by serially diluting the antimicrobial agent in growth medium and adding the appropriate microorganism. Three 200 μl aliquots of each dilution (inoculated with the appropriate microorganism) were transferred to a 96-well plate and allowed to incubate overnight at the appropriate temperature (37° C. for biomedical microorganisms such as E. coli). The plates were then measured for absorbance at 600 nm to determine microbial growth.

Data set [1] relates to Escherichia coli ATCC 12435. The experiment in a line: Antimicrobial activity of Q-POSS in solution, bacterial log reduction. The class given is cell-based. The settings on record: equal concentration 9.63×10^−5 moles/ml; 2 hrs at room temperature. As to the method:
Antimicrobial characterization. The antimicrobial activity of the Q-POSS in methanol was determined as follows. Stocks of Escherichia coli ATCC 12435 and Staphylococcus aureus ATCC 25923 were maintained weekly at 4° C. on LBA and TSB, respectively. Broth cultures of E. coli (LBB) and S. aureus (TSB) were prepared by inoculating one colony into 10 ml of broth and incubating at 37° C. with shaking. Overnight cultures were pelleted via centrifugation (10 min at 4500 rpm), washed twice in 0.9% NaCl, and re-suspended to a 0.5 McFarland turbidity standard (˜10^8 cells/ml). Q-POSS (2 μL) was added to the bacterial suspension (1 mL) previously dispensed into a well of a sterile 24-well polystyrene plate. The plates were then placed on an orbital shaker and allowed to incubate for 2 hrs at room temperature. Each Q-POSS/bacterial suspension (0.1 mL of each) was immediately transferred to D/E neutralization medium (0.9 ml) in a 1.5 mL microcentrifuge tube, and serially diluted (1:10) in D/E medium. […] After 24 hr of incubation, the plates were removed from the incubator and photographed with a digital camera to quantify bacterial growth in solution. […] Methanol was also evaluated for antimicrobial activity as it was used to solublize the Q-POSS for biological evaluations. […]

These results are taken from patent publication US20100004202A1, “Quaternary ammonium-functionalized-POSS compounds” (NDSU Research Foundation, priority 2008, published 2010).

As for `C[SiH](C)O[Si]12O[Si]3(O[SiH](C)C)O[Si]4(O[SiH](C)C)O[Si](O[SiH](C)C)(O1)O[Si]1(O[SiH](C)C)O[Si](O[SiH](C)C)(O2)O[Si](O[SiH](C)C)(O3)O[Si](O[SiH](C)C)(O4)O1` [octasilane-POSS, Octasilane-POSS], the solubility in methanol result in the data set “Solubility in methanol” was “insoluble”.

For the compound Benzalkonium chloride, the “MIC against E. coli” value against E. coli was 50 µg/mL. The “Log Reduction against E. coli” value in data set [1] amounted to 7.0.
